For this experiment, the system named is Cultured skin fibroblasts exposed to UV rays. The experiment is described as follows: cultured skin fibroblasts exposed to UV rays: intracellular GSH and cell survival. The note with it: for effectiveness for increase of intracellular GSH and of cell survival following exposure to ultraviolet radiation (in words): similar experiments, same concentrations; for cell survival, % (24 h after end of irradiation) / intracellular GSH, % compared to controls (3 h after incubation): fibroblasts exposed to UV rays, 3 h incubation with formulation containing 100 μM S-acyl-glutathione; for cell survival, % (24 h after end of irradiation): UV without compound 10, unexposed control 100; for intracellular GSH, % compared to controls (3 h after incubation): UV without compound 30, unexposed control 100. Type of experiment: cell-based.

In the case of `O=C1O[C@H]([C@@H](O)CO)C(O)=C1O` [ascorbic acid, reference compound], the “effectiveness for increase of intracellular GSH and of cell survival following exposure to ultraviolet radiation (in words)” value (shortened to “effectiveness for increase”) is listed as “did not produce significant effects”.

With `CC/C=C\C/C=C\C/C=C\C/C=C\C/C=C\C/C=C\CCC(=O)O` [docosahexaenoic acid], the “effectiveness for increase” value is “results similar to those obtained with linolenic and arachidonic acids”.

`Cc1c(C)c2c(c(C)c1O)CCC(C)(C(=O)O)O2` (stereo not shown) [Trolox®, reference compound]: the “effectiveness for increase” value is “did not produce significant effects”.

As for vitamin E [reference compound], the “effectiveness for increase” value is “did not produce significant effects”.

`CCCCC/C=C\C/C=C\C/C=C\C/C=C\CCCC(=O)SC[C@H](NC(=O)CC[C@H](N)C(=O)O)C(=O)NCC(=O)O` [arachidonoyl-S-glutathione]: the “cell survival, % (24 h after end of irradiation)” value (“cell survival, %” below) was 100% and the “intracellular GSH, % compared to controls (3 h after incubation)” value (from here on “intracellular GSH, %”) was 115%.

Take `CCCCCCCC/C=C\CCCCCCCC(=O)SC[C@H](NC(=O)CC[C@H](N)C(=O)O)C(=O)NCC(=O)O` [oleyl-S-glutathione]: the “cell survival, %” value is 35% and the “intracellular GSH, %” value is 85%.

In the case of `CC/C=C\C/C=C\C/C=C\CCCCCCCC(=O)SCC(NC(=O)CCC(N)C(=O)O)C(=O)NCC(=O)O` (stereo not shown) [linolenoyl-S-glutathione], the “cell survival, %” value came to 97% and the “intracellular GSH, %” value is 115%.

On to `CCCCC/C=C\C/C=C\CCCCCCCC(=O)SC[C@H](NC(=O)CC[C@H](N)C(=O)O)C(=O)NCC(=O)O` [linoleyl-S-glutathione], for which the “cell survival, %” value worked out at 63% and the “intracellular GSH, %” value came to 110%.

Consider `Oc1ccc(C=Cc2cc(O)cc(O)c2)cc1` [resveratrol, reference compound], for which the “effectiveness for increase” value is listed as “did not produce significant effects”.

Turning to `CC/C=C\C/C=C\C/C=C\CCCCCCCC(=O)N[C@@H](CCC(=O)N[C@@H](CSC(=O)CCCCCCC/C=C\C/C=C\C/C=C\CC)C(=O)NCC(=O)O)C(=O)O` [S,N-di-linolenoyl-S-glutathione], the “cell survival, %” value is 98% and the “intracellular GSH, %” value came to 113%.

As to `CC/C=C\C/C=C\C/C=C\C/C=C\C/C=C\CCCC(=O)SC[C@H](NC(=O)CC[C@H](N)C(=O)O)C(=O)NCC(=O)O` [eicosapentaenoic acid, eicosapentaenoyl-S-glutathione], the “effectiveness for increase” value was “results similar to those obtained with linolenic and arachidonic acids”.

(Values after patent US20160228489A1, “PHARMACEUTICAL COMPOSITION FOR THE PREVENTION AND THE TREATMENT OF DEGENERATIVE SKIN DISORDERS ESPECIALLY CAUSED BY IONIZING RADIATIONS” (SOLOSALE S.R.L., priority 2011, published 2016).)
